Format in all cases: functional
Assay [1] has as its system Staphylococcus aureus. Description: microbe, parasite or virus in culture. The settings on record: ATCC 6538p, 24 h.
Description: Antibacterial activity against Staphylococcus aureus ATCC 6538p assessed as growth inhibition after 24 hr by microdilution method
For assay [2], the system named is Staphylococcus epidermidis. Put plainly: microbe, parasite or virus in culture. The settings on record: ATCC 12228, 24 h.
Description: Antibacterial activity against Staphylococcus epidermidis ATCC 12228 assessed as growth inhibition after 24 hr by microdilution method
For assay [3], the system named is Pseudomonas aeruginosa. Put plainly: microbe, parasite or virus in culture. The settings on record: ATCC 9027, 24 h.
Description: Antibacterial activity against Pseudomonas aeruginosa ATCC 9027 assessed as growth inhibition after 24 hr by microdilution method
Assay [4] concerns Escherichia coli. Description: microbe, parasite or virus in culture. The settings on record: ATCC 8739, 24 h.
Description: Antibacterial activity against Escherichia coli ATCC 8739 assessed as growth inhibition after 24 hr by microdilution method
In assay [5] the test system is Helicobacter pylori. Description: Antibacterial activity against Helicobacter pylori strain 1 assessed as diameter of growth inhibition zone at 64 ug/disk after 3-5 days by filter paper disk diffusion method. The settings on record: read-out: DIZ.
Assay [6] has as its system Helicobacter pylori. Put plainly: Antibacterial activity against Helicobacter pylori strain 2 assessed as diameter of growth inhibition zone at 16 ug/disk after 3-5 days by filter paper disk diffusion method. The settings on record: read-out: DIZ. Background: In agar diffusion tests the substance spreads into inoculated agar from a disc or well.
Assay [7] relates to Klebsiella pneumoniae. Put plainly: microbe, parasite or virus in culture. The settings on record: ATCC 10031, 24 h.
Description: Antibacterial activity against Klebsiella pneumoniae ATCC 10031 assessed as growth inhibition after 24 hr by microdilution method
Assay [8] concerns Helicobacter pylori. Description: Antibacterial activity against Helicobacter pylori strain 2 assessed as diameter of growth inhibition zone at 32 ug/disk after 3-5 days by filter paper disk diffusion method. The settings on record: read-out: DIZ.
In assay [9] the test system is Helicobacter pylori. Put plainly: Antibacterial activity against Helicobacter pylori strain 3 assessed as diameter of growth inhibition zone at 8 ug/disk after 3-5 days by filter paper disk diffusion method. The settings on record: read-out: DIZ.
Assay [10] concerns Helicobacter pylori. Description: Antibacterial activity against Helicobacter pylori strain 1 assessed as diameter of growth inhibition zone at 32 ug/disk after 3-5 days by filter paper disk diffusion method. The settings on record: read-out: DIZ.
Assay [11] has as its system Helicobacter pylori. Put plainly: Antibacterial activity against Helicobacter pylori strain 3 assessed as diameter of growth inhibition zone at 16 ug/disk after 3-5 days by filter paper disk diffusion method. The settings on record: read-out: DIZ.
In assay [12] the test system is Helicobacter pylori. Description: Antibacterial activity against Helicobacter pylori strain 2 assessed as diameter of growth inhibition zone at 8 ug/disk after 3-5 days by filter paper disk diffusion method. The settings on record: read-out: DIZ.
Assay [13] has as its system Helicobacter pylori. Put plainly: Antibacterial activity against Helicobacter pylori strain 1 assessed as diameter of growth inhibition zone at 16 ug/disk after 3-5 days by filter paper disk diffusion method. The settings on record: read-out: DIZ.
The test system of assay [14] is Helicobacter pylori. Description: Antibacterial activity against Helicobacter pylori strain 2 assessed as diameter of growth inhibition zone at 64 ug/disk after 3-5 days by filter paper disk diffusion method. The settings on record: read-out: DIZ.
Assay [15] concerns Helicobacter pylori. Description: Antibacterial activity against Helicobacter pylori strain 3 assessed as diameter of growth inhibition zone at 32 ug/disk after 3-5 days by filter paper disk diffusion method. The settings on record: read-out: DIZ.
The test system of assay [16] is Helicobacter pylori. Put plainly: Antibacterial activity against Helicobacter pylori strain 3 assessed as diameter of growth inhibition zone at 64 ug/disk after 3-5 days by filter paper disk diffusion method. The settings on record: read-out: DIZ.
Assay [17] deals with Bacillus subtilis. Description: microbe, parasite or virus in culture. The settings on record: ATCC 6633, 24 h.
Description: Antibacterial activity against Bacillus subtilis ATCC 6633 assessed as growth inhibition after 24 hr by microdilution method
The test system of assay [18] is Helicobacter pylori. Description: Antibacterial activity against Helicobacter pylori strain 1 assessed as diameter of growth inhibition zone at 8 ug/disk after 3-5 days by filter paper disk diffusion method. The settings on record: read-out: DIZ.

Among the data in ChEMBL document CHEMBL3045421, “5-Nitro-heteroarylidene analogs of 2-thiazolylimino-4-thiazolidinones as a novel series of antibacterial agents” (2013) are MIC and zone of inhibition values, retold here.

In brackets after ≈: the same amount, converted by molar mass. Where only a bound is given, the exact number is not on record here.

As to `O=C1N/C(=N\c2nccs2)S/C1=C\C1C(=O)Nc2ccccc21` (centres undefined), the MIC in [1] was 25 µg/mL (≈ 73 µM); in [2], 12.5 µg/mL (≈ 36.5 µM); in assay [3] it was over 100 µg/mL; in assay [4], over 100 µg/mL; in assay [7] it was over 100 µg/mL; in assay [17], 6.25 µg/mL (≈ 18.3 µM). Further, the zone of inhibition at 64 µg/disc was found to be 15 mm in assay [5], 20 mm in [14] and 15 mm in assay [16]. Also, the zone of inhibition at 16 µg/disc in assay [6] was found to be 14 mm; in [11], 10 mm; in [13], 12 mm. The zone of inhibition at 32 µg/disc came out at 18 mm in assay [8], 13 mm in assay [10] and 14 mm in assay [15]. For the same compound, the zone of inhibition at 8 µg/disc in assay [9] turned out to be 10 mm; in assay [12], 12 mm; in [18] it was 10 mm.
As to `COc1ccc(-c2csc(/N=C3\NC(=O)/C(=C/c4ccc([N+](=O)[O-])o4)S3)n2)cc1`, the MIC is 25 µg/mL (≈ 58.3 µM) in [1]; 12.5 µg/mL (≈ 29.2 µM) in [2]; 100 µg/mL (≈ 233 µM) in assay [3]; over 100 µg/mL in [4]; over 100 µg/mL in assay [7]; 12.5 µg/mL (≈ 29.2 µM) in assay [17]. The values for the zone of inhibition at 64 µg/disc in assay [5], in [14] and in assay [16] were 14 mm, 20 mm and 26 mm, respectively. In addition, the zone of inhibition at 16 µg/disc was 17 mm in assay [6], 16 mm in [11] and 10 mm in assay [13]. Moreover, the zone of inhibition at 32 µg/disc in [8] turned out to be 19 mm; in assay [10] it was 12 mm; in assay [15] it was 19 mm. For the same compound, the zone of inhibition at 8 µg/disc in assay [9] is 12 mm; in assay [12] it was 15 mm; in [18] it was at most 6 mm.
For the compound `O=C1N/C(=N\c2nc3ccccc3s2)S/C1=C\c1ccc([N+](=O)[O-])o1`, the MIC is 0.97 µg/mL (≈ 2.6 µM) in [1]; 0.39 µg/mL (≈ 1.05 µM) in [2]; over 100 µg/mL in [3]; 3.12 µg/mL (≈ 8.39 µM) in [4]; 6.25 µg/mL (≈ 16.8 µM) in assay [7]; 0.39 µg/mL (≈ 1.05 µM) in assay [17]. Also, the zone of inhibition at 64 µg/disc in [5] was determined as 33 mm; in [14], 30 mm; in [16], 34 mm. Moreover, the zone of inhibition at 16 µg/disc came to 24 mm in [6], 28 mm in [11] and 24 mm in assay [13]. Further, the zone of inhibition at 32 µg/disc is 26 mm in assay [8], 28 mm in [10] and 30 mm in [15]. The zone of inhibition at 8 µg/disc in assay [9] worked out at 25 mm; in assay [12] it was 22 mm; in [18] it was 20 mm.
`Cn1c(/C=C2\S/C(=N/c3nc4ccccc4s3)NC2=O)ccc1[N+](=O)[O-]`: the MIC was 25 µg/mL (≈ 64.9 µM) in assay [1]; 25 µg/mL (≈ 64.9 µM) in [2]; over 100 µg/mL in assay [3]; over 100 µg/mL in assay [4]; 25 µg/mL (≈ 64.9 µM) in assay [7]; 12.5 µg/mL (≈ 32.4 µM) in assay [17]. Further, the zone of inhibition at 64 µg/disc in assay [5] is 32 mm; in assay [14], 35 mm; in assay [16] it was 30 mm. In addition, the zone of inhibition at 16 µg/disc in assay [6] is 29 mm; in assay [11] it was 24 mm; in assay [13], 26 mm. In addition, the zone of inhibition at 32 µg/disc is 33 mm in [8], 29 mm in assay [10] and 26 mm in assay [15]. The zone of inhibition at 8 µg/disc in assay [9] was 22 mm; in assay [12] it was 27 mm; in assay [18], 23 mm.
For `COc1ccc(-c2csc(/N=C3\NC(=O)/C(=C/C4C(=O)Nc5ccccc54)S3)n2)cc1` (centres undefined), the MIC is over 100 µg/mL in assay [1]; 100 µg/mL (≈ 223 µM) in [2]; over 100 µg/mL in assay [3]; 100 µg/mL (≈ 223 µM) in [4]; over 100 µg/mL in assay [7]; over 100 µg/mL in [17]. Besides, the zone of inhibition at 64 µg/disc in [5], in assay [14] and in assay [16] was 6 mm in each case. The zone of inhibition at 16 µg/disc in assay [6], in assay [11] and in assay [13] was 6 mm throughout. The zone of inhibition at 32 µg/disc in assay [8], in assay [10] and in assay [15] was 6 mm in each case. The zone of inhibition at 8 µg/disc in assay [9], in assay [12] and in assay [18] was 6 mm in each case.
`Cn1c(/C=C2\S/C(=N/c3nccs3)NC2=O)ccc1[N+](=O)[O-]`: the MIC in assay [1] was 0.78 µg/mL (≈ 2.33 µM); in assay [2] it was 0.19 µg/mL (≈ 0.567 µM); in assay [3] it was over 100 µg/mL; in assay [4], 12.5 µg/mL (≈ 37.3 µM); in assay [7], 0.39 µg/mL (≈ 1.16 µM); in assay [17], 0.19 µg/mL (≈ 0.567 µM). For the same compound, the zone of inhibition at 64 µg/disc in assay [5], in [14] and in assay [16] was over 50 mm throughout. For the same compound, the zone of inhibition at 16 µg/disc in assay [6], in [11] and in assay [13] was over 50 mm throughout. The zone of inhibition at 32 µg/disc in assay [8], in assay [10] and in assay [15] was over 50 mm in each case. The zone of inhibition at 8 µg/disc in assay [9], in assay [12] and in assay [18] was over 50 mm throughout.
On to `O=C1N/C(=N\c2nccs2)S/C1=C\c1ccc([N+](=O)[O-])o1`, for which the MIC in assay [1] is 0.97 µg/mL (≈ 3.01 µM); in assay [2], 0.006 µg/mL (≈ 0.0186 µM); in [3], 0.39 µg/mL (≈ 1.21 µM); in assay [4] it was 1.56 µg/mL (≈ 4.84 µM); in [7], 1.56 µg/mL (≈ 4.84 µM); in assay [17], 0.19 µg/mL (≈ 0.589 µM). Besides, the zone of inhibition at 64 µg/disc in assay [5], in assay [14] and in assay [16] was over 50 mm in each case. Besides, the zone of inhibition at 16 µg/disc in assay [6], in assay [11] and in assay [13] was over 50 mm throughout. Moreover, the zone of inhibition at 32 µg/disc in assay [8], in assay [10] and in assay [15] was over 50 mm each time. Also, the zone of inhibition at 8 µg/disc in assay [9], in [12] and in [18] was over 50 mm throughout.
As to `O=C1N/C(=N\c2nc(-c3ccccc3)cs2)S/C1=C\c1ccc([N+](=O)[O-])o1`, the MIC in [1] is 50 µg/mL (≈ 125 µM); in assay [2] it was 25 µg/mL (≈ 62.7 µM); in assay [3], over 100 µg/mL; in [4], over 100 µg/mL; in assay [7] it was over 100 µg/mL; in assay [17] it was 50 µg/mL (≈ 125 µM). Also, the zone of inhibition at 64 µg/disc was found to be 20 mm in assay [5], 23 mm in assay [14] and 20 mm in [16]. Besides, the zone of inhibition at 16 µg/disc in [6] worked out at 12 mm; in assay [11] it was 15 mm; in [13] it was 13 mm. Further, the zone of inhibition at 32 µg/disc in assay [8] was 18 mm; in assay [10] it was 15 mm; in assay [15], 18 mm. Moreover, the zone of inhibition at 8 µg/disc in assay [9] turned out to be 13 mm; in [12] it was 10 mm; in [18] it was 10 mm.
